Literature values as cited in patent US7514592B2, “Inducible heart attack animal model” (Massachusetts Institute of Technology, priority 2004, dated 2009).

Test system: SR-BI knockout females
Details: homozygous SR-BI knockout dams (infertile); administered during the breeding protocol

CC(C)(Sc1cc(C(C)(C)C)c(O)c(C(C)(C)C)c1)Sc1cc(C(C)(C)C)c(O)c(C(C)(C)C)c1 [probucol]
fertility in SR-BI knockout females: restore fertility
